Data: patent US20100035831A1, “ANTI-WRINKLE AGENT AND ADAM INHIBITOR” (SHISEIDO COMPANY, LTD., priority 2007, published 2010)

Key:
ADAM = test: Inhibition of PMA-induced TNF-α release from U937 cells as index of ADAM inhibition (ELISA); type: cell-based, human; settings: tested substance 30 μg/mL, 30 min pretreatment, 10 nM PMA for 6 hours
Description: For ADAM inhibiting effect, the TNF-α which is cut out to be released from the membrane of the U937 cell derived from the human lymphoma through the action of the ADAM was used as an index and the inhibiting effect on the TNF-α release was assessed. A new ADAM inhibitor was explored by screening different compounds according to the present method.
The U937 cells derived from the human lymphoma were seeded to the 48-well plate adjusting the number of the cells to 1×10^5 cells/0.25 ml and cultured at 37° C. overnight. The medium which contained 30 μg/ml of alkyl glucoside was added and incubated at 37° C. for 30 min. to be pretreated. 10 nM PMA (phorbol ester:12-O-tetradecanoylphorbol-acetate; Sigma P8139) was then added and cultured at 37° C. for 6 hours. After completion of the treatment, the supernatant of the culture was collected, centrifuged and the cell-free supernatant was cryopreserved at −20° C. The assay of the released hTNF-α was performed using the hTNF-α Duo-Set ELISA kit from R & D Ltd. Each supernatant of the culture was diluted 5 folds with the medium, then 100 μl each was added to the 96-well plate and measured according to the protocol of R & D Ltd. The absorbance at 450-570 nm of each well was measured by the measurement kit and concentrations of the samples were obtained from the standard curve. The inhibition rates were calculated according to the following equation wherein A0 is the absorbance of 0% inhibiting control (the medium containing only PMA), A100 is the absorbance of 100% inhibiting control (only the medium) and AS is the absorbance of the sample.
The inhibition rate (%)=(A0−AS)/(A0−A100)×100

[1] = tested on: fine wrinkles around the human eyes; test: Visual judgement of fine wrinkles under the human eye, half face double blind test; type: in vivo; settings: 0.44% in 30% ethanol
Description: (§1) An aqueous solution of 0.44% dodecyl β-D-glucoside/30% ethanol was successively applied to 16 adult male humans in the 30-40th's (the average age of 42.2) for two months. The dosage was set as 30 μl per application. The solution of 0.44% dodecyl β-D-glucoside/30% ethanol was applied to the lateral angle of and under one eye and 30% ethanol aqueous solution as the vehicle was applied to those of the other eye two times a day.
(§2) To examine the state of the skin around the eyes before the application and after the application, it was acclimated in a steady temperature and humidity room (23.5° C., 45% humidity) after washing the face and then photo taking of the appearance around the eyes (Nikon digital single lens reflex camera D-100) and the water content measurement of the horny layer (Corneometer, Courage+Khazaka electronic GmbH, Germany) were performed before starting the test and after starting the successive application for two months.
Then, the visual appreciation judgement was performed by three judging persons.

[2] = tested on: barrier-destructed wrinkle mouse model; test: Wrinkle score by visual judgement in the tape-stripping barrier-destructed wrinkle mouse model; type: in vivo, hairless mice (HR-1)
Description: Then, the wrinkle-ameliorating effects of dodecyl β-D-glucoside (GC12), tetradecyl β-D-glucoside (GC14), and hexadecyl β-D-glucoside (GC16) amongst the new ADAM-inhibiting compounds were examined using a barrier-destructed wrinkle mouse model.
(§3) The tape stripping was performed on the left back of the hairless mice (HR-1, 6 week old male, Hosino experimental animals) 3 times a week for 4 consecutive weeks so that the trans epithelial water loss (measured using a measuring device of water loss MEECO; Meeco Ltd, USA) was 4-8 mg/cm^2/h. Every time immediately after procedures of tape stripping, 100 μl each of the solutions of dodecyl β-D-glucoside, tetradecyl β-D-glucoside, and hexadecyl β-D-glucoside dissolved in the 50% ethanol aqueous solution so that they were 1% were applied on the left back of the mice, and as the negative control, a 50% ethanol aqueous solution (vehicle) were similarly applied. Number n was set as 6 to 7 for each group.
States of the wrinkle development after 4 weeks were scored by visual judgement. The assessment criteria of the wrinkle development state was set as “no wrinkle; 0”, “thin wrinkle; 1”, “clear wrinkle; 2”, “deep wrinkle; 3”, and the states were scored to the 0.5.
(§4) Using the similar method, the wrinkle-inhibiting effect of octadecyl β-D-glucoside (GC18) was also examined.

[3] = Water content of the horny (corneal) layer around the human eyes (Corneometer); type: in vivo; settings: 0.44% in 30% ethanol, two months; vehicle group reduced to 95% of the value before start (FIG. 6)
Description: as §1, §2
The rate of the water content value of the corneal layer of the eye, when the value is 100, after successive application for two months based on the water content value of the horny layer of each subject before starting the test (relative water content of the horny layer (%)) was obtained to calculate the average value for each group.

[4] = tested on: barrier-destructed wrinkle mouse model; test: Relative transepidermal water loss (TEWL) in the barrier-destructed wrinkle mouse model; type: in vivo, hairless mice (HR-1); settings: for Relative TEWL (%), left (treated) side based on right (untreated) side: 1% in 50% ethanol, 4 weeks after starting, vehicle group 186% (FIG. 3)
Description: as §3
Further, the trans epithelial water loss (TEWL) at the backs of the mice before starting the test and at 4 weeks after starting was also examined. The TEWL values at the left backs on which dodecyl β-D-glucoside, tetradecyl β-D-glucoside, and hexadecyl β-D-glucoside or 50% ethanol aqueous solution (vehicle) were applied after tape stripping procedure as well as the values at the right backs on which nothing was applied were measured by the Vapometer (Technologies Ltd, Kuopio, Finland) two times, respectively. The ratio of the TEWL value for the left side based on the TEWL value of the right side for each individual (the relative TEWL (%)) was obtained and the average value for each group was calculated.
as §4

[5] = 30 μl two times a day for two months, 16 adult males, versus vehicle-applied side
[6] = 1% in 50% ethanol, 100 μl on left back after each tape stripping, 3 times a week, after 4 weeks, vehicle group 1.24 (FIG. 2)

In the case of `CCCCCCCCCCO[C@@H]1O[C@H](CO)[C@@H](O)[C@H](O)[C@H]1O` [Decyl β-D-glucoside], the “Inhibition rate (%) of TNF-α release” value (ADAM) is reported as 56%.
In the case of `CCCCCCCCCCCCO[C@H]1O[C@H](CO)[C@@H](O)[C@H](O)[C@H]1O` [Dodecyl α-D-glucoside], the “Inhibition rate (%) of TNF-α release” value (ADAM) is reported as 91%.
In the case of `CCCCCCCCCCCCO[C@@H]1O[C@H](CO)[C@@H](O)[C@H](O)[C@H]1O` [Dodecyl β-D-glucoside], the “Number of subjects Ameliorated” value [1, 5] is reported as 10, the “Number of subjects Deteriorated” value [1, 5] is reported as 2 and the “Number of subjects Unchanged” value [1, 5] is reported as 4. For the same molecule, the “Effect on fine wrinkles under the eye (in words)” value ([1]; two months, human) was “significantly ameliorates the fine wrinkles under the eye”, the “Average wrinkle score by visual judgement (0 no wrinkle to 3 deep wrinkle)” value [2, 6] was 0.58 and the “Relative water content of the horny layer (in words)” value [3] was “reduction of the water content of the corneal layer was controlled”. The “Inhibition rate (%) of TNF-α release” value (ADAM) was 88% and the “Relative TEWL (%), left (treated) side based on right (untreated) side” value (“Relative TEWL (%), left” for short) [4] was 141%.
In the case of `OC[C@H]1O[C@@H](Oc2ccccc2)[C@H](O)[C@@H](O)[C@@H]1O` [Glucoside compound (A), reference compound], the “Inhibition rate (%) of TNF-α release” value (ADAM) is reported as 9.5%.
With `OC[C@H]1O[C@@H](OCc2ccccc2)[C@H](O)[C@@H](O)[C@@H]1O` [Glucoside compound (B), reference compound] the “Inhibition rate (%) of TNF-α release” value (ADAM) was 3.4%.
In the case of `OC[C@H]1O[C@@H](Oc2cccc3cccnc23)[C@H](O)[C@@H](O)[C@@H]1O` [Glucoside compound (C), reference compound], the “Inhibition rate (%) of TNF-α release” value (ADAM) is reported as 4.8%.
With `OC[C@H]1O[C@@H](Oc2c[nH]c3ccccc23)[C@H](O)[C@@H](O)[C@@H]1O` [Glucoside compound (D), reference compound] the “Inhibition rate (%) of TNF-α release” value (ADAM) was −0.5%.
In the case of `OC[C@H]1O[C@@H](OCCc2ccccc2)[C@H](O)[C@@H](O)[C@@H]1O` [Glucoside compound (E), reference compound], the “Inhibition rate (%) of TNF-α release” value (ADAM) is reported as −51.83%.
In the case of `CCCCCCCCCCCCCCCCO[C@@H]1O[C@H](CO)[C@@H](O)[C@H](O)[C@H]1O` [Hexadecyl β-D-glucoside], the “Average wrinkle score by visual judgement (0 no wrinkle to 3 deep wrinkle)” value [2, 6] is reported as 0.89, the “Inhibition rate (%) of TNF-α release” value (ADAM) is reported as 76% and the “Relative TEWL (%), left” value [4] is reported as 164%.
In the case of `CCCCCCCCCCCCCCCCCCO[C@@H]1O[C@H](CO)[C@@H](O)[C@H](O)[C@H]1O` [Octadecyl β-D-glucoside], the “Average wrinkle score by visual judgement (0 no wrinkle to 3 deep wrinkle)” value ([2]; similar method, vehicle group 1.55 (FIG. 4)) is reported as 0.54, the “Inhibition rate (%) of TNF-α release” value (ADAM) is reported as 62% and the “Relative TEWL (%)” value ([4]; similar method, vehicle group 208% (FIG. 5)) is reported as 124%.
In the case of `CCCCCCCCCCCCCCO[C@@H]1O[C@H](CO)[C@@H](O)[C@H](O)[C@H]1O` [Tetradecyl β-D-glucoside], the “Average wrinkle score by visual judgement (0 no wrinkle to 3 deep wrinkle)” value [2, 6] is reported as 0.63, the “Inhibition rate (%) of TNF-α release” value (ADAM) is reported as 109% and the “Relative TEWL (%), left” value [4] is reported as 130%.
For `CCCCCCCCCCCO[C@@H]1O[C@H](CO)[C@@H](O)[C@H](O)[C@H]1O` [Undecyl β-D-glucoside], the “Inhibition rate (%) of TNF-α release” value (ADAM) was 98%.
